Data as given in patent US20260008746A1, “CATIONIC LIPID COMPOUND WITH HIGH EFFICIENCY, LOW TOXICITY AND STABLE EXPRESSION, AND COMPOSITION COMPRISNG SAME” (HANGZHOU TIANLONG PHARMACEUTICAL CO., LTD, priority 2023, published 2026).

Tests used:
293T cells [1] = assay: Fluorescent detection of Fluc-mRNA (cell transfection efficiency of LNP formulations); format: cell-based; conditions: for Relative light unit (RLU): LNP formulation containing 0.3 μg Fluc-mRNA, 96-well plate, 24 hours; for Multiples (YK-101): RLU of YK-101 / RLU of named substance; for Multiples (YK-107): RLU of YK-107 / RLU of named substance; for Multiples (YK-108): RLU of YK-108 / RLU of named substance; for Ratio relative to SM-102: RLU of named substance / RLU of SM-102; for difference from SM-102 in Fluc-mRNA fluorescence (GraphPad Prism analysis): statistical comparison with SM-102
Outline: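 293T cells seeded at 10,000 per well, cultured overnight, then given LNP carrying 0.3 μg Fluc-mRNA (cationic:neutral:structured:PEG-lipid 49:10:39.5:1.5 molar). Incubated 24 h. Luciferase signal read with kit reagent on an IVIS imaging system.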

293T cells [2] = assay: Cell survival rate determination (CCK-8); format: cell-based; conditions: for Cell survival rate (%): LNP formulation containing 1.5 μg Fluc-mRNA, 24 hours, CCK-8, absorbance at 450 nm; for cell survival rate lower than that of YK-101: cell survival rate of YK-101 minus that of named substance; for cell survival rate lower than that of YK-107: cell survival rate of YK-107 minus that of named substance; for cell survival rate lower than that of YK-108: cell survival rate of YK-108 minus that of named substance
Outline: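 293T cells were seeded overnight at 10,000 cells/well in 96-well plates, then exposed for 24 h to LNP containing 1.5 μg Fluc-mRNA (cationic:neutral:structural:polymer-conjugated lipid, 49:10:39.5:1.5 molar) or to Lipofectamine 3000. Viability was read by CCK-8, 1 h incubation, absorbance 450 nm.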

[3] = Determination of particle size and polydispersity index (PDI) of lipid nanoparticles by dynamic light scattering; format: physicochemical; conditions: LNP formulation of named cationic lipid/DSPC/cholesterol/DMG-PEG2000 49:10:39.5:1.5; for Particle size (nm): 90° scattering angle, 25° C
Protocol: The cationic lipids listed in Table 1 were dissolved in ethanol with DSPC (AVT (Shanghai) Pharmaceutical Technology Co., Ltd.), cholesterol (AVT (Shanghai) Pharmaceutical Technology Co., Ltd.) and DMG-PEG2000 according to a molar ratio of 49:10:39.5:1.5, respectively, to prepare lipid solution in ethanol. The lipid solution in ethanol was quickly added to citrate buffer (pH=4 to 5) by ethanol injection method, and vortexed for 30 s for later use. eGFP-mRNA (from Shanghai Biohub International Trade Co., Ltd) or Fluc-mRNA (from Shanghai Biohub International Trade Co., Ltd) was diluted in citrate buffer (pH=4 to 5) to give an aqueous mRNA solution. A certain volume of liposome solution and mRNA aqueous solution were used to prepare liposomes at a weight ratio of total lipids to mRNA of 15:1. The mixtures were sonicated at 25° C. for 15 min (with an ultrasonic frequency of 40 kHz and an ultrasonic power of 800 W). The resulting liposomes were diluted to 10 times volume with PBS, and then ultrafiltered with a 300 KDa ultrafiltration tube to remove ethanol. Then the volume was fixed to a certain volume with PBS to give an LNP formulation encapsulating eGFP-mRNA or Fluc-mRNA using cationic lipid/DSPC/cholesterol/DMG-PEG2000 (49:10:39.5:1.5 in molar percentage).
The particle size and polydispersity index (PDI) were determined by dynamic light scattering using Malvern laser particle size analyzer.
10 μL of the liposome solution was weighed, diluted to 1 mL with RNase-free deionized water, and added to the sample pool. Each sample was measured in triplicate. The measurement conditions were: 90° scattering angle, and 25° C.

BALB/C mice = assay: In vivo imaging of Fluc-mRNA expression in mice delivered by LNP formulations; conditions: for average radiation intensity, 6 h / average radiation intensity, 24 h / average radiation intensity, 48 h / average radiation intensity, 7 d: LNP containing 10 pg Fluc-mRNA, intramuscular, female BALB/C mice
Outline: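 Female BALB/C mice (4-6 weeks, 17-19 g) received LNP carrying […] Fluc-mRNA intramuscularly. Substrate was given intraperitoneally at 6 h, 24 h, 48 h and 7 d, and average radiance was imaged by IVIS 5 min later.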

[4] = highest multiple, time point not stated

PDI(%) [3] | Particle size (nm) [3] | Structure (SMILES) | Relative light unit (RLU) (293T cells [1]) | Multiples (YK-107) (293T cells [1]) | Multiples (YK-108) (293T cells [1]) | Ratio relative to SM-102 (293T cells [1]) | Cell survival rate (%) (293T cells [2]) | cell survival rate lower than that of YK-101 (293T cells [2]) | cell survival rate lower than that of YK-107 (293T cells [2]) | cell survival rate lower than that of YK-108 (293T cells [2]) | average radiation intensity of YK-101, times that of named substance (BALB/C mice; 6 h) | average radiation intensity of YK-107, times that of named substance (BALB/C mice; 6 h) | average radiation intensity of YK-108, times that of named substance (BALB/C mice; 6 h) | average radiation intensity of YK-101, times that of named substance (BALB/C mice; 24 h) | average radiation intensity of YK-107, times that of named substance (BALB/C mice; 24 h) | average radiation intensity of YK-108, times that of named substance (BALB/C mice; 24 h) | average radiation intensity, 6 h (BALB/C mice; 6 h) | average radiation intensity, 24 h (BALB/C mice; 24 h) | average radiation intensity, 48 h (BALB/C mice; 48 h) | average radiation intensity, 7 d (BALB/C mice; 7 d) | further results
17.4% | 142 nm | CCCCCCCCCCCOC(=O)CCCCCN(CCO)CCCCCCCC(=O)OC(CCCCCCCC)CCCCCCCC [SM-102, reference compound] | 1534210 RLU | 14.58 | 16.07 | 1.00 | 68.17% | 21.95% | 22.28% | 21.69% | 2.2 times | 2.3 times | 2.9 times | 9.0 times | 11.1 times | 11.9 times | 689570 | 117750 | 31900 | 5834 | Multiples (YK-101) (293T cells [1]): 13.25; average radiation intensity of YK-101, times that of named substance (BALB/C mice; 48 h): 5.8 times; average radiation intensity of YK-107, times that of named substance (BALB/C mice; 48 h): 7.1 times; average radiation intensity of YK-108, times that of named substance (BALB/C mice; 48 h): 7.2 times; average radiation intensity of YK-101, times that of named substance (BALB/C mice; 7 d): 2.1 times; average radiation intensity of YK-107, times that of named substance (BALB/C mice; 7 d): 2.3 times; average radiation intensity of YK-108, times that of named substance (BALB/C mice; 7 d): 2.4 times; expression amount of mRNA in mice of YK-108, times that of named substance (BALB/C mice; [4]): up to 11 times
12.1% | 205 nm | CCCCCCCCCCOC(=O)CCCN(CCO)CCCCCC(=O)OCC(CCCCCCCC)CCCCCCCC [YK-009, reference compound] | 5075954 RLU | 4.41 | 4.86 | 3.31 | 73.57% | 16.55% | 16.88% | 16.29% | – | – | – | – | – | – | 1055200 | 770050 | 132100 | 10665 | Multiples (YK-101) (293T cells [1]): 4.01
26.9% | 200 nm | CCCCCCCCCCOC(=O)CCCN(CCO)CCCCC(=O)OCCC(CCCCCC)CCCCCC [YK-104] | 1693707 RLU | 13.20 | 14.56 | 1.10 | 73.55% | 16.57% | 16.90% | 16.31% | 2.0 times | 2.1 times | 2.7 times | 9.3 times | 11.4 times | 12.3 times | 747000 | 113940 | 33095 | 7969 | difference from SM-102 in Fluc-mRNA fluorescence (GraphPad Prism analysis) (293T cells [1]): no significant difference; average radiation intensity of YK-101, times that of named substance (BALB/C mice; 48 h): 5.6 times; average radiation intensity of YK-107, times that of named substance (BALB/C mice; 48 h): 6.8 times; average radiation intensity of YK-108, times that of named substance (BALB/C mice; 48 h): 7.0 times; average radiation intensity of YK-101, times that of named substance (BALB/C mice; 7 d): 1.5 times; average radiation intensity of YK-107, times that of named substance (BALB/C mice; 7 d): 1.7 times; average radiation intensity of YK-108, times that of named substance (BALB/C mice; 7 d): 1.8 times
14.4% | 140 nm | CCCCCCCCCC(=O)OCCCCN(CCO)CCCCCC(=O)OCC(CCCCCCCC)CCCCCCCC [YK-106] | 1628063 RLU | 13.73 | 15.15 | 1.06 | 59.59% | 30.53% | 30.86% | 30.27% | 2.2 times | 2.3 times | 2.9 times | 10.0 times | 12.3 times | 13.3 times | 683840 | 105776 | 32940 | 7052 | Multiples (YK-101) (293T cells [1]): 12.49; difference from SM-102 in Fluc-mRNA fluorescence (GraphPad Prism analysis) (293T cells [1]): no significant difference; average radiation intensity of YK-101, times that of named substance (BALB/C mice; 48 h): 5.6 times; average radiation intensity of YK-107, times that of named substance (BALB/C mice; 48 h): 6.9 times; average radiation intensity of YK-108, times that of named substance (BALB/C mice; 48 h): 7.0 times; average radiation intensity of YK-101, times that of named substance (BALB/C mice; 7 d): 1.7 times; average radiation intensity of YK-107, times that of named substance (BALB/C mice; 7 d): 1.9 times; average radiation intensity of YK-108, times that of named substance (BALB/C mice; 7 d): 2.0 times
28.2% | 205 nm | CCCCCCCCCC(=O)OCCCCN(CCO)CCCCCC(=O)OCCC(CCCCCC)CCCCCC [YK-109] | 717431 RLU | – | – | 0.47 | 69.45% | 20.67% | 21.00% | 20.41% | 2.4 times | 2.6 times | 3.2 times | 11.2 times | 13.8 times | 14.8 times | 625040 | 94720 | 18496 | 4948 | difference from SM-102 in Fluc-mRNA fluorescence (GraphPad Prism analysis) (293T cells [1]): no significant difference; average radiation intensity of YK-101, times that of named substance (BALB/C mice; 48 h): 10.1 times; average radiation intensity of YK-107, times that of named substance (BALB/C mice; 48 h): 12.2 times; average radiation intensity of YK-108, times that of named substance (BALB/C mice; 48 h): 12.5 times; average radiation intensity of YK-101, times that of named substance (BALB/C mice; 7 d): 2.5 times; average radiation intensity of YK-107, times that of named substance (BALB/C mice; 7 d): 2.7 times; average radiation intensity of YK-108, times that of named substance (BALB/C mice; 7 d): 2.9 times; expression amount of mRNA in mice of YK-101, times that of named substance (BALB/C mice; [4]): up to 11 times; expression amount of mRNA in mice of YK-107, times that of named substance (BALB/C mice; [4]): ≤ 13 times
